Literature values in patent US11730774B2, “Bacterial biofilms and cancer” (THE JOHNS HOPKINS UNIVERSITY, priority 2018, dated 2023).

System: bacteria
Details: 6-week-old mice, water containing 500 mg/L cefoxitin for 48 hours; by 24 hours

## CO[C@@]1(NC(=O)Cc2cccs2)C(=O)N2C(C(=O)O)=C(COC(N)=O)CS[C@@H]21 [Cefoxitin]
  detectable bacteria by culture or 16S rRNA qPCR: absence of detectable bacteria
